ChEMBL document CHEMBL1155624, “Steroidal glycosides from the aerial parts of Polianthes tuberosa” (J Nat Prod, 2000)
≈ marks a conversion by molar mass, not a printed value.

System: HL-60
Experiment: Cytotoxicity against human HL60 cells by MTT reduction assay
Type: functional, cell-based

## CC1CC[C@@]2(OC1)O[C@H]1C[C@H]3[C@@H]4CC[C@H]5C[C@@H](O[C@@H]6O[C@H](CO)[C@H](O[C@@H]7O[C@H](CO)[C@@H](O)[C@H](O[C@@H]8OC[C@@H](O)[C@H](O)[C@H]8O)[C@H]7O[C@@H]7O[C@H](CO)[C@@H](O)[C@H](O[C@@H]8OC[C@@H](O)[C@H](O)[C@H]8O)[C@H]7O)[C@H](O)[C@H]6O)CC[C@]5(C)C4=CC(=O)[C@]3(C)[C@H]1[C@@H]2C (some centres undefined)
  IC50: 6.1 µg/mL (≈ 5.17 µM)

## CC(C)CC[C@H](O)[C@@H](C)[C@H]1[C@@H](O[C@@H]2OC[C@](O)(CO)[C@H]2O)C[C@H]2[C@@H]3CC=C4C[C@@H](O)C[C@@H](O[C@@H]5O[C@H](CO)[C@@H](O)[C@H](O)[C@H]5O)[C@]4(C)[C@H]3CC[C@]12C
  IC50: > 10 µg/mL

## CC1CC[C@@]2(OC1)O[C@H]1C[C@H]3[C@@H]4CC[C@H]5C[C@@H](O[C@@H]6O[C@H](CO)[C@H](O[C@@H]7O[C@H](CO)[C@@H](O)[C@H](O[C@@H]8OC[C@@H](O)[C@H](O)[C@H]8O)[C@H]7O[C@@H]7O[C@H](CO)[C@@H](O)[C@H](O[C@@H]8OC[C@@H](O)[C@H](O)[C@H]8O)[C@H]7O)[C@H](O)[C@H]6O)CC[C@]5(C)[C@H]4CC(=O)[C@]3(C)[C@H]1[C@@H]2C (some centres undefined)
  IC50: 3.2 µg/mL (≈ 2.71 µM)

## CC1CC[C@@]2(OC1)O[C@H]1C[C@H]3[C@@H]4C[C@H](O)[C@H]5C[C@@H](O[C@@H]6O[C@H](CO)[C@H](O[C@@H]7O[C@H](CO)[C@@H](O)[C@H](O[C@@H]8OC[C@@H](O)[C@H](O)[C@H]8O)[C@H]7O[C@@H]7O[C@H](CO)[C@@H](O)[C@H](O[C@@H]8OC[C@@H](O)[C@H](O)[C@H]8O)[C@H]7O)[C@H](O)[C@H]6O)CC[C@]5(C)[C@H]4CC[C@]3(C)[C@H]1[C@@H]2C (some centres undefined)
  IC50: 2.6 µg/mL (≈ 2.2 µM)
